Source: PMC3340406, “Molecular and Functional Characterization of Novel Fructosyltransferases and Invertases from Agave tequilana” (PLoS ONE, 2012)

Tests used:
Assay type in all cases: biochemical
AtqCwinv-1 [1] = target: T1, AtqCwinv-1 (Agave tequilana, UniProt I1ZBQ2); experiment: HPAEC-PAD, exohydrolase activity; conditions: 100 mM 1-kestose, 50 mM sodium acetate pH 4.3, 30 °C; 10 µg affinity purified protein
T1 construct: gene Cwinv1; mature region, signal peptide (24 aa) removed, His-tagged, secreted from Pichia pastoris X-33 (pPICZalphaA); full length 575 aa; about 75 kDa on gel
T1 sequence (I1ZBQ2 25-575): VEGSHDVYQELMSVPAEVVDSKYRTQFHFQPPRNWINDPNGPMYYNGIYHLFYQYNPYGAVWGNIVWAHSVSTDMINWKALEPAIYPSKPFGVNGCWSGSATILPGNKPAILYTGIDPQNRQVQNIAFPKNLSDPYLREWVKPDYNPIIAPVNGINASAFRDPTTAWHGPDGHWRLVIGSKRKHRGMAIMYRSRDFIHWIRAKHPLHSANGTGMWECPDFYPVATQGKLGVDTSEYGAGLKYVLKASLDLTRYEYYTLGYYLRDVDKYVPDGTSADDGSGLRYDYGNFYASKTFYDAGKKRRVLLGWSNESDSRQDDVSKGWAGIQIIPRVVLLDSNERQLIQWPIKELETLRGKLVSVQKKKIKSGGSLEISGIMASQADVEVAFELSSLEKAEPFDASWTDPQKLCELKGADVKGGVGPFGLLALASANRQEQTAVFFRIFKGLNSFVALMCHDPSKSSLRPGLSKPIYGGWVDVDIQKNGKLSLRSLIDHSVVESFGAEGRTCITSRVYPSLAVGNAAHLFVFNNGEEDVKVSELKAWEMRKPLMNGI

Atq6G-FFT-1 = target: T2, Atq6G-FFT-1 (Agave tequilana, UniProt I1ZBQ0); experiment: HPAEC-PAD product analysis; conditions: 50 mM 1-kestose (stock contains some sucrose and nystose), 50 mM sodium acetate pH 5.5, 30 °C; 20 µg total protein extract
T2 construct: gene FFT1; mature region, signal peptide (34 aa) removed, His-tagged, secreted from Pichia pastoris X-33 (pPICZalphaA); full length 627 aa; about 80 kDa on gel
T2 sequence (I1ZBQ0 35-627): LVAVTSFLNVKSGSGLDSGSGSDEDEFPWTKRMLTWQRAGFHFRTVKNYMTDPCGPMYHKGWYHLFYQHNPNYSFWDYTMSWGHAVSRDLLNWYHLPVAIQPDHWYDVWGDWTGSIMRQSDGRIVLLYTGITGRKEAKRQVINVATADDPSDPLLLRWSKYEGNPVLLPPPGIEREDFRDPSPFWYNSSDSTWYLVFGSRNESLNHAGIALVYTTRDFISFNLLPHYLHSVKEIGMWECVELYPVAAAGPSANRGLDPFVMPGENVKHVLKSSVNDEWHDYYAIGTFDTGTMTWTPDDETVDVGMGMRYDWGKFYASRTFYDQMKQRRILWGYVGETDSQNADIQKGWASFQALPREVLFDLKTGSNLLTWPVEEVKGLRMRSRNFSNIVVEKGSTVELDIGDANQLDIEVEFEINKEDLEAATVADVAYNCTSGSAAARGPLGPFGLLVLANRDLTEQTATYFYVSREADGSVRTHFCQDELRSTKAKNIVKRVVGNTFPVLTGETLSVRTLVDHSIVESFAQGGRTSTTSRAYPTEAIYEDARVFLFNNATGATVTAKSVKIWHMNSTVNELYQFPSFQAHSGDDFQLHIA

AtqCwinv-1 [2] = target: T1, AtqCwinv-1; experiment: TLC and HPAEC-PAD, sucrose hydrolysis; conditions: 100 mM sucrose, 50 mM sodium acetate pH 4.3, 30 °C; 10 µg affinity purified protein

Compound	HPAEC-PAD, exohydrolase activity (AtqCwinv-1 [1])	HPAEC-PAD product analysis (Atq6G-FFT-1)	TLC and HPAEC-PAD, sucrose hydrolysis (AtqCwinv-1 [2])
OC[C@H]1O[C@@](CO)(OC[C@@]2(O[C@H]3O[C@H](CO)[C@@H](O)[C@H](O)[C@H]3O)O[C@H](CO)[C@@H](O)[C@@H]2O)[C@@H](O)[C@@H]1O [1-kestose]	some exohydrolytic activity occurred when sucrose was replaced by 1-kestose as substrate	1-kestose was used as substrate no neokestose was produced but a tetrasaccharide 4c molecule	
OC[C@H]1O[C@@](CO)(O[C@H]2O[C@H](CO)[C@@H](O)[C@H](O)[C@H]2O)[C@@H](O)[C@@H]1O [sucrose]			AtqCwinv-1 produced fructose and glucose when incubated with sucrose as the sole substrate
